Peptide text beside a SMILES is read from it.

One test deals with T1, αVβ3 (Homo sapiens, UniProt P06756).
T1 construct: Platelets express a second integrin with a β3 subunit, αVβ3; endogenous in cells; host or cells: gel-filtered human platelets
The test is described as follows: Platelet adhesion to immobilized osteopontin. Type of test: cell-based. Here is the method: The integrin αVβ3 mediates adhesion of platelets to the matrix protein osteopontin, potentially exposed to the circulating blood by rupture of an atherosclerotic plaque. […] The potency of anti-αv in inducing platelet adhesion to osteopontin was approximately 10-fold lower than that of anti-αIIb in inducing platelet aggregation (FIG. 11). Adhesion of platelets in 100 μl aliquots of gel-filtered human platelets to immobilized osteopontin was induced by the indicated concentrations of anti-αV, either alone or in the presence of the calcium chelator 2.5 mM EDTA or the global platelet signal transduction inhibitor 2 μM PGE1. Platelets stimulated by 20 μM ADP served as a positive control. Platelet adhesion was quantitated using a colorimetric assay based on measurement of platelet acid phosphatase activity. The data shown in FIG. 11 are the mean and standard error of measurements made in triplicate. Anti-αV-induced adhesion was prevented by agents that inhibit the interaction of αVβ3's extracellular ligand-binding site with osteopontin, including EDTA or the specific RGD-containing αVβ3 antagonist XJ735, confirming that anti-αV induced platelet adhesion to osteopontin is mediated by αVβ3.
Platelet adhesion to osteopontin was measured as previously described. See Fleming K G J. Mol. Biol. 323, 563-571 (2002). Briefly, 96-well flat bottom microtiter plates (Immulon 2, Dynatech, Chantilly Va.) were coated with 5 μg/ml of recombinant osteopontin dissolved in 50 mM NaHCO3 buffer, pH 8.0, containing 150 mM NaCl. Unoccupied protein binding sites on the wells were blocked with 5 mg/ml bovine serum albumin dissolved in the same buffer. One hundred μl aliquots of a gel-filtered platelet suspension containing ≈2-5×10^6 platelets were added to the protein-coated wells in the absence or presence of anti-αV or ADP. Following an incubation for 30 min at 37° C. without agitation, the plates were washed four times and the number of adherent platelets measured using a colorimetric assay that measure platelet acid phosphatase activity. The polypeptide was added from a DMSO solution such that the final concentration of DMSO was no greater than 0.5%. All controls also had 0.5% DMSO in the buffer.

Another test deals with T2, FITC-αIIb-TM (Homo sapiens, UniProt P08514).
T2 construct: designated αIIb-TM, spanning residues Trp968 to Lys989 of αIIb was synthesized; made in house; host or cells: chemical peptide synthesis (no expression host)
T2 sequence (P08514 999-1020 limits assumed): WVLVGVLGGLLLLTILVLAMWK
The test is described as follows: FRET heterodimeric association in micelles. Type of test: binding. To be noted: pH 7.5.

T1 sequence (P06756 891-1048 limits assumed): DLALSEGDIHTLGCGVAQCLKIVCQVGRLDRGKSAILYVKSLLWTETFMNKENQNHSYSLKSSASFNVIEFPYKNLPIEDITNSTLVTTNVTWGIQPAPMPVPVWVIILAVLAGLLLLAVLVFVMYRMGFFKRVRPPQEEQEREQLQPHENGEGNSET
T1 sequence (P06756 31-889 partner limits assumed): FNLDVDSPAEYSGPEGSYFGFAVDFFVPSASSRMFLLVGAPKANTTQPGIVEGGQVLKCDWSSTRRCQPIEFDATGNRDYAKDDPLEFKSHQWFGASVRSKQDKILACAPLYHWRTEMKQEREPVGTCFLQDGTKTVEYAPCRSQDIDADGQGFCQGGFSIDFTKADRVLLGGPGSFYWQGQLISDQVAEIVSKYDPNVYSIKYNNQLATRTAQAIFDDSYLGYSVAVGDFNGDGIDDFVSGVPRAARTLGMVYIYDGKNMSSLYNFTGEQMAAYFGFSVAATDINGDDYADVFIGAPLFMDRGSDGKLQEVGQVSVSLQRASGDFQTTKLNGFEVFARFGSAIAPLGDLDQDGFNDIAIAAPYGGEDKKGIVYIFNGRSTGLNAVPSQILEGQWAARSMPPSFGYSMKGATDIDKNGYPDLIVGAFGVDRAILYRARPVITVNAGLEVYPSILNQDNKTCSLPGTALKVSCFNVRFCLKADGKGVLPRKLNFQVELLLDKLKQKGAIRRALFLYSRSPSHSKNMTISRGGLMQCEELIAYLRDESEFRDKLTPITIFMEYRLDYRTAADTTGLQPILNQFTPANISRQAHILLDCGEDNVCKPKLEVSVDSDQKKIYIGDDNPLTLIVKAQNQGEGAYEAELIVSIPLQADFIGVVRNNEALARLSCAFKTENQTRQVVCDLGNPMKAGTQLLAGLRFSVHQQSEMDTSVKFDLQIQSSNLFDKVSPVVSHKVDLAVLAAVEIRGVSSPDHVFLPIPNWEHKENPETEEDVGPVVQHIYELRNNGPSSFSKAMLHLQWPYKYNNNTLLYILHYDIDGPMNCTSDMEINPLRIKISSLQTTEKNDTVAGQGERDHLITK
T1 sequence (P05106 27-788 partner): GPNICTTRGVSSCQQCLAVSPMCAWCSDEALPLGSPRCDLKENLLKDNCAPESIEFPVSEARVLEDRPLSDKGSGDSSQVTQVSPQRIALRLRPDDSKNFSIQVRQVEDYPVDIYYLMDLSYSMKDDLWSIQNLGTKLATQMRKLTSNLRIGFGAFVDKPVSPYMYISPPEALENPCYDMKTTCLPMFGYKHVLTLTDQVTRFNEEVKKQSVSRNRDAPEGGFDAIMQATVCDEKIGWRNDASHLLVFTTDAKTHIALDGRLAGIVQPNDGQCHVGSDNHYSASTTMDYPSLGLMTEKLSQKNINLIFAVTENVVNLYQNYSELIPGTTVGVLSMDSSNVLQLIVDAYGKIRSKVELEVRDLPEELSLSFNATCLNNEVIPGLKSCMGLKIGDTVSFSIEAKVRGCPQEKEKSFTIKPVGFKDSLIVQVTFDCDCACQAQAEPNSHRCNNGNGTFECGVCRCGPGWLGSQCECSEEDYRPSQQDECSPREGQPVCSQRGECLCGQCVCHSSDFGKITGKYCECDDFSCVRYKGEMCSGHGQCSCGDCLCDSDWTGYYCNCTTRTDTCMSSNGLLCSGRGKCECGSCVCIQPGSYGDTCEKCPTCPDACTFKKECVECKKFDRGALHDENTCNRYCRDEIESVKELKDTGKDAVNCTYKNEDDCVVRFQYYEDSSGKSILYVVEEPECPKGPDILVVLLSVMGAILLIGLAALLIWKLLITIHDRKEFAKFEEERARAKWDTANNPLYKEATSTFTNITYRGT
Method for FITC-αIIb-TM: FRET provided a more direct measure of the αIIb-TM/anti-αIIb heterodimeric association. […] Because the appropriate parameter for the association of polypeptides in micelles is generally the polypeptide concentration in the detergent micellar phase rather than the bulk polypeptide concentration, dissociation constants are often given in mole fraction units (polypeptide/detergent ratios).
Fluorescence resonance energy transfer (FRET) experiments were conducted on an ATF 105 spectrofluorometer (Aviv Biomedical, Inc., Lakewood, N.J.) using 0.3 cm path length cuvettes. […] Reference samples contain the same amount of FITC-αIIb-TM and non-labeled anti-αIIb to their corresponding FRET samples. Emission and excitation scans of the 1:1 mixture of FITC-αIIb-TM/coum-anti-αIIb were carried out to determine the optimal excitation and emission wavelengths. Excitation at 415 nm was selected. For the titration experiments in FIG. 2b, the emission at 500 nm was monitored. A slit width of 1.5 nm was used for both the excitation and emission. The signal and QC PMT high voltages were set at 737.3 V and 75.0 V, respectively. For the time-domain experiments, an experiment time of 600 seconds with 10 seconds of interval time and 10 seconds of average time was used. […] The fluorescence intensity values were used after correction of the inner filter effects using the standard method. […]

In the case of AYVFILLSFILGTLLGFLVMFWA [anti-αV], at αVβ3, the “potency in inducing platelet adhesion to osteopontin, lower than that of anti-αIIb in inducing platelet aggregation” value was “approximately 10 fold”. In addition, at αVβ3 (2 μM PGE1), the “induced adhesion after pre-incubating the platelets with PGE1” value was “only minimally affected”. Also, the “induced adhesion in the presence of EDTA or αVβ3 antagonist XJ735” value on αVβ3 (2.5 mM EDTA) is reported as “prevented”. Besides, on αVβ3 (absence of pharmacological platelet agonists), the “platelet adhesion to osteopontin” value is recorded as “induced robust platelet adhesion to osteopontin”.
On to `CC[C@H](C)[C@H](NC(=O)[C@H](Cc1ccccc1)NC(=O)[C@H](Cc1ccccc1)NC(=O)[C@@H]1CCCN1C(=O)[C@H](CC(C)C)NC(=O)[C@H](CC(C)C)NC(=O)[C@H](CCSC)NC(=O)[C@@H](NC(=O)[C@H](Cc1ccc(O)cc1)NC(=O)[C@H](C)NC(=O)[C@H](CCCCN)NC(=O)[C@@H](N)CCCCN)C(C)C)C(=O)NCC(=O)N[C@@H](CC(C)C)C(=O)N[C@@H](CC(C)C)C(=O)N[C@@H](CC(C)C)C(=O)NCC(=O)N[C@@H](CC(C)C)C(=O)N[C@H](C(=O)N[C@@H](Cc1ccccc1)C(=O)NCC(=O)NCC(=O)N[C@@H](C)C(=O)N[C@@H](Cc1ccccc1)C(=O)N[C@@H](Cc1c[nH]c2ccccc12)C(=O)NCC(=O)N1CCC[C@H]1C(=O)N[C@@H](C)C(=O)N[C@@H](CCCNC(=N)N)C(=O)N[C@@H](Cc1c[nH]cn1)C(=O)N[C@@H](CC(C)C)C(=O)N[C@@H](CCCCN)C(=O)N[C@@H](CCCCN)C(N)=O)[C@@H](C)CC` [anti-αIIb] (H-KKAYVMLLPFFIGLLLGLIFGGAFWGPARHLKK-NH2; N-terminus assumed), for which, at FITC-αIIb-TM, the “apparent Kdiss for the αIIb-TM/anti-αIIb interaction” value is recorded as 3.2±0.5×10^−4 mole fraction units.

These data come from patent US8349791B2, “Polypeptides that bind membrane proteins” (The Trustees of the University of Pennsylvania, priority 2006, dated 2013).
